Experimental data taken from patent US7482427B2, “Positive modulator of bone morphogenic protein-2” (BioSurface Engineering Technologies, Inc., priority 2002, dated 2009).

How the values were obtained:
[1] = system: C2C12 cells; assay: Alkaline phosphatase (ALP) activity assay in C2C12 cells; type: cell-based, Mouse; settings: for induction of ALP by growth factor in the presence of B2A2: B2A2 1000 ng/mL, FGF-2 50 ng/mL, VEGF 25 ng/mL, TGF-β1 50 pg/mL, 3 days
Procedure: Alkaline phosphatase (ALP) Activity Assay. C2C12 cells and C3H10T½ cells were cultured at 37° C. in a humidified atmosphere of 5% CO2 and 95% air, with DMEM/F12 medium supplemented with 10% serum, penicillin/streptomycin. […] At 4-5 days post induction, ALP activity was determined as described by Akiyama and colleagues (Akiyama et al. 1997, Exp Cell Res 235(2):362-9.) with modifications. Briefly, cells were washed once with phosphate-buffered saline (PBS) and lysed with 0.1% Triton×100 in 10 mM Tris HCl, pH 9.0. Protein concentration was determined using the BCA Protein Assay Kit (Pierce Biotechnology, Rockford, Ill.). Then ALP activity was measured by adding ALP buffer (1 M diethanolamine, 0.5 mM MgCl2, 1 mg/mL p-nitrophenylphosphate, pH 9.0), incubating in 37° C., and absorbance (405 nm) read at 15, 30 and 60 minutes using a microplate spectrophotometer (Molecular Devices, Sunnyvale, Calif.). The activity was expressed as O.D. per mg protein per hour.
B2A2 was tested to determine whether B2A2 enhanced the biological effects of CHO-produced rhBMP-2. […] Points represent means of quintuplicate determinations±SD.
B2A2 was tested in combination with other growth factors including FGF-2, VEGF, and tGF-β1 for induction of ALP in C2C12 cells. […] Mouse C2C12 cells were cultured as described for FIG. 1A, treated with a combination of various growth factors plus or minus B2A2, incubated for 3 days, and then assayed for ALP activity as described for FIG. 1A. […] Bars represent means of quintuplicate determinations±SD.
Mouse C2C12 cells were cultured as before and B2A2 (1000 ng/mL) was added to some wells. After a 45 minute incubation all wells were rinsed with fresh medium and the medium was replaced. […] After 5 days ALP activity was measured. […] Data is the means of triplicates±SD.
In FIG. 5A, a polystyrene surface of 96-well plates were first coated by silyl-heparin (open bars), followed by a 1 μg/mL solution of B2A2 (solid bars) in PBS for (1 hr at 37° C.) and rinsed in PBS and dried at room temperature. […] ALP activity was measured five days later. Data is the means of triplicates±SD.
In FIG. 5B, stainless steel wafers were first coated with silyl-heparin (open bars) followed by 100 μg/mL B2A2 in PBS as a second coating (solid bars) and rinsed in PBS and dried at room temperature. Wafers were coated separately in wells of a 24-well plate and transferred to a fresh untreated plate prior to cell seeding.
ALP activity was measured five days later. Data is the means of triplicates±SD.

[2] = system: C3H10T½, MC3T3 cells or hFOB; assay: Cell migration across simulated wound margin, positive control (cell line not specified); type: cell-based; settings: positive control reference, FGF-2 50 ng/mL, 6 hours (data not shown)
Procedure: Cell migration. For studies involving migration across a wound margin, the cells were grown in vitro and used when approximately 90% confluent. A simulated wound was made by scraping cells away from the cultureware surface. The cultures were rinsed to remove unbound cells, and then incubated in DMEM:F12 medium containing 2% newborn calf serum with or without peptide. FGF-2 (50 ng/mL) was used as a positive control reference material. The cells were allowed to migrate for 6 hours after which the cells were fixed in buffered formalin. Migration was monitored via phase contrast microscopy. Migrating cells were those that had migrated across the site of the simulated wound margin.
B2A2-K-NS was tested for its ability to induce cells of preosteoblast origin to migrate to a stimulated wound margin. Murine C3H10T½, MC3T3 cells or hFOB were grown to near confluency in vitro. A stimulated wound was made by scraping the cells away from the substrate. The cells were allowed to migrate for 6 hours after which migration was monitored via microscopy. Statistical significance was determined using ANOVA followed by post hoc testing using multiple comparison versus control group (Dunnett's Method). […] Table 3 summarizes the increase in migrating cells at the simulated wound margin induced by about 0.2 to 2.0 μg/mL B2A2-K-NS.

[3] = system: BMPR and ActivinR isoforms; assay: Solid phase receptor binding assay, panel of receptor/Fc chimeras; settings: insulin adsorbed to plates; Endostatin-Fc as unrelated chimeric protein
Procedure: Receptor binding assays. Binding to BMP receptors in a solid phase binding assay. B2A2 was absorded onto ELISA plates to saturation, soluble BMP receptor-immunoglobin Fc fusion proteins were added, and bound receptor was detected by HRP-conjugated anti-Fc antibody and colorimetric assay, values shown are background substracted. Specific binding of B2A2 to different receptor isoforms of the BMPR and Activin Receptor family were tested, employing the receptor-Fc chimeras shown. […] Bound receptor was displaced by the addition of rhBMP-2 at the levels indicated.
The compound of Example 2 was tested for specific binding to Bone Morphogenic Protein-2 receptors. Referring now to FIG. 12, results of solid phase receptor binding assays utilizing purified receptor/Fc chimeric molecules are illustrated. The chimeras are recombinant constructs of the soluble ectodomain of various receptor molecules (BMPR and ActivinR isoforms) fused to the carboxyl-terminal of the human IgG1 Fc region via a polypeptide liner. ELISA plates were coated with B2A2 or control compounds, soluble chimeric receptor/Fc antibody and quantified with a colorimeteric ELISA.

Substance	induction of ALP by growth factor in the presence of B2A2 [1]	further results
FGF-2: growth factor, positive control reference material for migration (50 ng/mL)	failed to induce ALP	migrating cells compared to controls [2]: significant increase in migrating cells
Insulin	–	binding of negative controls [3]: did not bind
TGF-B: growth factor purchased from Sigma Aldrich, tested in combination with B2A2	failed to induce ALP	–
VEGF	failed to induce ALP	–
benzyl-tetra(dimethylsilylmethyl)oxycarbamoyl-heparin [silyl-heparin, reference compound]	–	ALP activity on coated polystyrene surface ([1]; silyl-heparin coating alone, BMP-2 50 ng/mL in solution, 5 days): potentiates BMP-2 activity
